Values quoted from earlier work, collected in patent US10232037B2, “Supramolecular hydrogel of fMLF-based molecules and use thereof” (BRANDEIS UNIVERSITY, priority 2014, dated 2019).

Test system: neutrophils
Settings: aqueous solution, literature

CSCC[C@H](NC=O)C(=O)N[C@@H](CC(C)C)C(=O)N[C@@H](Cc1ccccc1)C(=O)O [fMLF, N-formyl-L-methionyl-L-leucyl-L-phenylalanine]
duration of neutrophil accumulation effect: 2 to 6 h
